Test results from patent publication US6555356B2, “Methods for microbial regulation” (Unisearch Limited, priority 1995, dated 2003).
≈ marks a conversion by molar mass, not a printed value.

Legend:
Format in all cases: cell-based
[1] = tested on: Candida albicans; test: Fungal growth inhibition zone assay, Candida albicans
Experimental: (§1) In addition to the tests described above, the effects of selected compounds of the general formula 2 on growth of bacteria, one yeast (Candida albicans) and one fungus (Helminthosporium sp.) were assessed. Bacteria were grown in liquid media in the presence of different concentrations of furanones and growth measured via changes in optical density (OD). Fungal assays were done by inoculating agar plates with spores. These plates contained different concentrations of furanone compounds in wells within the plates. Zones of inhibition around these wells were measured after 48 hours.

[2] = tested on: Helminthosporium sp.; test: Fungal growth inhibition zone assay, Helminthosporium sp.
Experimental: as §1

[3] = tested on: Serratia liquefaciens; test: Serratia liquefaciens swarming assay; settings: 5-100 μg/ml in LB agar (0.7%) plates
Experimental: (§2) Serratia liquefaciens was grown in liquid LB medium at room temperature to an optical density of 0.3 at 450 nm and stable inoculated onto LB agar (0.7% agar) plates. Plates were incubated at 30° C. and observed regularly for swarming behaviour. The effect on swarming of furanone compounds was tested by adding (after sterilisation and cooling of the agar) compounds 1-13 (FIG. 3). in the concentration range of 5-100 μg/ml, to the plates.

[4] = tested on: Serratia liquefaciens; test: Growth of Serratia liquefaciens in liquid LB medium; settings: 100 μg/ml
Experimental: (§3) The effect on growth of Serratia liquefaciens by furanone compounds was also measured in liquid LB medium by comparing growth of cultures without the addition of compounds versus growth of cultures with added furanone compounds (100 μg/ml of compounds 1-13 (FIG. 3) in separate cultures). Growth was measured as optical density at 450 nm and followed over a 48 hr period.

[5] = tested on: Chromobacterium violencia mutant negative for the HSL auto inducer; test: Chromobacterium violencia (indigo) assay; settings: for Effect on HSL phenotype: indigo formation: Chromobacterium violencia, 100 μg/ml; for Stimulation of indigo production by the compound itself: indigo negative Chromobacterium violencia mutant, addition of compound
Experimental: (§4) A mutant of Chromobacterium violencia negative for the HSL auto inducer was used in the assay. The strain was pour plated in LB medium at high density and wells were punched after the media had set. Sterile, filtered supernatants from various HSL producing strains were added to the wells. Plates were incubated at 30° C. and observed for the formation of purple zones (due to […]) around the wells. The effects of furanone compounds 1 and 2 (FIG. 3) were assessed by running this assay on plates of LB medium containing furanone compounds at a concentration of 100 μg/ml. The effects of the compounds on growth of Chromobacterium were assessed as above.

[6] = tested on: Chromobacterium violencia; test: Growth of Chromobacterium violencia; settings: 100 μg/ml
Experimental: as §3, §4

[7] = tested on: Pseudomonas aeruginosa; test: Pseudomonas aeruginosa (elastase) assay; settings: 100 μg/ml in elastin agar
Experimental: (§5) Inoculants from precultures were streaked onto Peptone-Tryptic Soy Broth agar containing 0.3% elastin. Plates were incubated at 37° C. and observed for hydrolysis of the elastin. The effect of furanone compounds was assess by adding compounds 1-4 (100 μg/ml) to the plates and comparing zones of hydrolysis in plates with and without the compounds.

[8] = tested on: Vibrio fisheri; test: Vibrio fisheri bioluminescence assay; settings: 100 μg/ml, visual inspection of agar plates
Experimental: (§6) Initial assays for both strains of Vibrio were streaked onto LB agar plates (with 2% NaCl) with and without furanone compounds 1-4 at 5-100 μg/ml. Bioluminescence of the plates was visually assessed after 24 hours of incubation at room temperature. In subsequent assays, both strains were grown in liquid culture in the presence of furanones. Bioluminescence was assayed via a luminometer. The effects of furanones on growth of both strains were assayed as above.

[9] = tested on: Vibrio harveyi; test: Vibrio harveyi bioluminescence assay; settings: 100 μg/ml, visual inspection of agar plates
Experimental: as §6

[10] = tested on: Vibrio fisheri; test: Growth of Vibrio fisheri
Experimental: as §3, §6

[11] = tested on: Vibrio harveyi; test: Growth of Vibrio harveyi
Experimental: as §3, §6

[12] = tested on: strain R12; test: Marine isolate swimming, strain R12
[13] = tested on: strain R12; test: Marine isolate growth in liquid media, strain R12
Experimental: as §3
(§7) Methods followed those described for Serratia liquefaciens (above). Inhibition of growth of these bacteria by furanones was assessed as above.

[14] = tested on: strain R12; test: Marine isolate swarming, strain R12
Experimental: as §2, §7

[15] = tested on: strain R86; test: Marine isolate swimming, strain R86
[16] = tested on: strain R86; test: Marine isolate growth in liquid media, strain R86
Experimental: as §3, §7

[17] = tested on: strain R86; test: Marine isolate swarming, strain R86
Experimental: as §2, §7

[18] = tested on: strain R130; test: Marine isolate swimming, strain R130
[19] = tested on: strain R130; test: Marine isolate growth in liquid media, strain R130
Experimental: as §3, §7

[20] = tested on: strain R130; test: Marine isolate swarming, strain R130
Experimental: as §2, §7

[21] = tested on: strain V21; test: Marine isolate swimming, strain V21
[22] = tested on: strain V21; test: Marine isolate growth in liquid media, strain V21
Experimental: as §3, §7

[23] = tested on: strain V21; test: Marine isolate swarming, strain V21
Experimental: as §2, §7

[24] = tested on: strain V54; test: Marine isolate swimming, strain V54
[25] = tested on: strain V54; test: Marine isolate growth in liquid media, strain V54
Experimental: as §3, §7

[26] = tested on: strain V54; test: Marine isolate swarming, strain V54
Experimental: as §2, §7

[27] = tested on: strain V55; test: Marine isolate swimming, strain V55
[28] = tested on: strain V55; test: Marine isolate growth in liquid media, strain V55
Experimental: as §3, §7

[29] = tested on: strain V55; test: Marine isolate swarming, strain V55
Experimental: as §2, §7

[30] = tested on: Pseudomonas aeruginosa; test: Growth of Pseudomonas aeruginosa on plates; settings: 100 μg/ml
Experimental: as §5

Row | Compound | width of inhibition zone ([1]; amount added 0.1 μg) | width of inhibition zone ([1]; amount added 1 μg) | width of inhibition zone ([1]; amount added 10 μg) | width of inhibition zone ([1]; amount added 100 μg) | width of inhibition zone ([2]; amount added 0.1 μg) [mm] | width of inhibition zone ([2]; amount added 1 μg) | width of inhibition zone ([2]; amount added 10 μg) | width of inhibition zone ([2]; amount added 100 μg) | Effect on HSL phenotype: swarming [3] | Effect on bacterial growth [4] | Effect on HSL phenotype: indigo formation [5] | Stimulation of indigo production by the compound itself [5] | Effect on bacterial growth [6] | Effect on HSL phenotype: elastase [7] | Effect on HSL phenotype: luminescence [8] | Effect on HSL phenotype: luminescence [9] | Effect on bacterial growth [10] | Effect on bacterial growth [11] | Minimum inhibitory concentration, Swimming [12] [µg/mL] | Minimum inhibitory concentration, Growth [13] [µg/mL] | also measured
1 | C[C@@H]1[C@H](O)[C@@H](C)/C=C/C=C/C=C/C=C/C=C/C=C/C=C/[C@H](O[C@@H]2O[C@H](C)[C@@H](O)[C@H](N)[C@@H]2O)C[C@@H]2O[C@](O)(C[C@@H](O)C[C@@H](O)[C@H](O)CC[C@@H](O)C[C@@H](O)CC(=O)O[C@H]1C)C[C@H](O)[C@H]2C(=O)O [Amphotericin B, reference compound] | 2-4 mm | 5-7 mm | 6-10 mm | 1.14 mm | 2 | 6 mm | 6-8 mm | 7-10 mm | – | – | – | – | – | – | – | – | – | – | – | – | –
2 | CCCCC1=C(Br)C(=C(Br)Br)OC1=O [Compound 1] | 0 mm | 0 mm | 0 mm | 1-2 mm | 0 | 0 mm | 2-5 mm | 20 mm | inhibit | no effect | inhibit | do not stimulate | no effect | stimulated | inhibit | inhibit | no effect | no effect | >50 | >50 | Minimum inhibitory concentration, Swarming [14]: 5 µg/mL (≈ 12.9 µM); Minimum inhibitory concentration, Swimming [15]: 50 µg/mL (≈ 129 µM); Minimum inhibitory concentration, Growth [16]: >50 µg/mL; Minimum inhibitory concentration, Swarming [17]: 25 µg/mL (≈ 64.3 µM); Minimum inhibitory concentration, Swimming [18]: >50 µg/mL; Minimum inhibitory concentration, Growth [19]: >50 µg/mL; Minimum inhibitory concentration, Swarming [20]: 25 µg/mL (≈ 64.3 µM); Minimum inhibitory concentration, Swimming [21]: 25 µg/mL (≈ 64.3 µM); Minimum inhibitory concentration, Growth [22]: 25 µg/mL (≈ 64.3 µM); Minimum inhibitory concentration, Swarming [23]: 5 µg/mL (≈ 12.9 µM); Minimum inhibitory concentration, Swimming [24]: 5 µg/mL (≈ 12.9 µM); Minimum inhibitory concentration, Growth [25]: >50 µg/mL; Minimum inhibitory concentration, Swarming [26]: 25 µg/mL (≈ 64.3 µM); Minimum inhibitory concentration, Swimming [27]: 5 µg/mL (≈ 12.9 µM); Minimum inhibitory concentration, Growth [28]: >50 µg/mL; Minimum inhibitory concentration, Swarming [29]: 5 µg/mL (≈ 12.9 µM)
3 | CCCCC1=C(Br)C(=CBr)OC1=O [Compound 2] | 0 mm | 0 mm | 0 mm | 2-3 mm | 0 | 0 mm | 2-4 mm | 20 mm | inhibit | no effect | inhibit | do not stimulate | no effect | stimulated | inhibit | inhibit | no effect | no effect | >50 | >50 | Effect on bacterial growth [30]: no detectable effect; Minimum inhibitory concentration, Swarming [14]: 5 µg/mL (≈ 16.1 µM); Minimum inhibitory concentration, Swimming [15]: >50 µg/mL; Minimum inhibitory concentration, Growth [16]: >50 µg/mL; Minimum inhibitory concentration, Swarming [17]: 5 µg/mL (≈ 16.1 µM); Minimum inhibitory concentration, Swimming [18]: >50 µg/mL; Minimum inhibitory concentration, Growth [19]: >50 µg/mL; Minimum inhibitory concentration, Swarming [20]: 25 µg/mL (≈ 80.6 µM); Minimum inhibitory concentration, Swimming [21]: 25 µg/mL (≈ 80.6 µM); Minimum inhibitory concentration, Growth [22]: 25 µg/mL (≈ 80.6 µM); Minimum inhibitory concentration, Swarming [23]: 5 µg/mL (≈ 16.1 µM); Minimum inhibitory concentration, Swimming [24]: 5 µg/mL (≈ 16.1 µM); Minimum inhibitory concentration, Growth [25]: >50 µg/mL; Minimum inhibitory concentration, Swarming [26]: 5 µg/mL (≈ 16.1 µM); Minimum inhibitory concentration, Swimming [27]: 5 µg/mL (≈ 16.1 µM); Minimum inhibitory concentration, Growth [28]: >50 µg/mL; Minimum inhibitory concentration, Swarming [29]: 5 µg/mL (≈ 16.1 µM)
4 | CCCC(OC(C)=O)C1=C(Br)C(=CI)OC1=O (stereo not drawn) [Compound 5] | 0 mm | 0 mm | 1 mm | 3-8 mm | 0 | 2-4 mm | 9-13 mm | 20 mm | – | – | – | – | – | – | – | – | – | – | – | – | –
5 | CCCCC1=CC(=C(Br)Br)OC1=O [Compound 8] | 0 mm | 0 mm | 0 mm | 0 mm | 0 | 0 mm | 0 mm | 20 mm | – | – | – | – | – | – | – | – | – | – | – | – | –
6 | CCCCCCC1=CC(=C(Br)Br)OC1=O [Compound 13] | 0 mm | 0 mm | 0 mm | 1 mm | 0 | 0 mm | 0 mm | 0 mm | – | – | – | – | – | – | – | – | – | – | – | – | –
